# Results taken from publication PMC11911254 (Pharmacological Reports, 2025).
# Experiments:
# [1] = cited from earlier work
# [2] = design: method as in PMID 7288602; conditions: rats; single dose of 15 mg/kg; cited from earlier work
# [3] = Concentration of paracetamol and its metabolites in plasma, CSF and brain cortex by LC-MS/MS; conditions: for Concentration in CSF / Concentration in brain / Concentration in plasma: E19 rats; for Concentration in CSF / Concentration in brain / Concentration in plasma / concentration at 30 min: median (IQR); for concentration at 30 min: both, Sprague Dawley, rat, intraperitoneal, P4 rats
# Description: Drug injection protocol is illustrated in Fig. 1.
# Male and female postnatal P4 pups and 7–8 week-old non-pregnant females were used. […] In combination therapy experiments, this dose was accompanied by one of the 7 other drugs (Table 1). For all experiments, animals were terminally anesthetized 30 min after the drug injection using inhaled isoflurane (IsoFlo 100% w/w, Abbott Laboratories), and blood, CSF, and brain samples were collected. Blood was collected directly from the right cardiac ventricle, CSF from the cisterna magna, and cortical brain samples from the frontal/parietal lobes dorsal to the lateral ventricles as described previously.
# Pregnant E19 dams were anesthetized with ip urethane injection (25% w/v urethane, Sigma, 1 ml/100 g body weight) and placed on a 39 °C heating pad in the supine position. An endotracheal catheter was inserted to maintain a clear airway. Catheters were inserted into the femoral vein and artery for iv drug administration and arterial blood sampling respectively. The cannula was flushed with 0.5 ml of heparinized saline (Hospira Inc, 5,000 units/ml) after drug administration and following each arterial blood sample. Following drug administration to the dams, fetuses were exteriorized and serially collected starting at 30 min post-maternal injection. […] At collection, the viability of each fetus was assessed (presence of a heartbeat, the colour of the umbilical vessels) and blood, CSF, and brain samples were taken along with a time-matched maternal blood sample from the femoral artery. At the end of the experiment, a final maternal blood sample was taken directly from the left cardiac ventricle, and CSF and brain samples were collected.
# This method has been described previously for valproate, lamotrigine, and olanzapine and was applied in the present study. Simultaneous quantification was performed for all compounds in plasma, brain, and CSF samples following the addition of respective stable isotope-labeled internal standards.
# Linear response range was determined in untreated control rat plasma for each compound at 0.1, 1, 10, 50, 100, 200, 400, and 800 µg/ml.
# [4] = maternal iv paracetamol 15 mg/kg + cimetidine 11 mg/kg (PARA+CIM, n=10)
# [5] = maternal iv paracetamol 15 mg/kg + digoxin 0.03 mg/kg (PARA+DIG, n=9)
# [6] = maternal iv paracetamol 15 mg/kg + lamotrigine 6 mg/kg (PARA+LTG, n=10)
# [7] = maternal iv paracetamol 15 mg/kg + olanzapine 0.15 mg/kg (PARA+OLZ, n=10), all values if <3 detected
# [8] = maternal iv paracetamol 15 mg/kg + valproate 30 mg/kg (PARA+VPA, n=10), all values if <3 detected
# [9] = maternal iv paracetamol 15 mg/kg monotherapy (PARA, n=10)
smiles,measurement,setting,value
"CC(=O)Nc1ccc(O)cc1 [Paracetamol, reference compound]",fraction metabolized by glucuronidation via UGT enzymes,"[1]; adult humans, liver",55–60%
same,fraction metabolized by sulfation via SULT enzymes,"[1]; adult humans, liver",20–30%
same,fraction excreted unchanged in urine,[1]; adult humans,around 4%
same,fraction turned into NAPQI via cytochrome P450 enzymes,[1]; adult humans,Up to 10%
same,proportion of paracetamol's metabolism by the glutathione metabolic pathway,[1],< 10%
same,half-life,[2],around 16 min
same,Concentration in CSF,[3]; [4],7.2 (1.7) µg/ml
same,Concentration in brain,[3]; [4],10.2 (5.7) µg/ml
same,Concentration in plasma,[3]; [4],7.6 (2.5) µg/ml
same,Concentration in CSF,[3]; [5],6.5 (2.2) µg/ml
same,Concentration in brain,[3]; [5],6.6 (3.0) µg/ml
same,Concentration in plasma,[3]; [5],5.8 (2.2) µg/ml
same,Concentration in CSF,[3]; [6],6.3 (3.4) µg/ml
same,Concentration in brain,[3]; [6],8 (2.6) µg/ml
same,Concentration in plasma,[3]; [6],6.2 (3.7) µg/ml
same,Concentration in plasma,"[3]; maternal iv paracetamol 15 mg/kg + olanzapine 0.15 mg/kg (PARA+OLZ, n=10)",4.1 (3.7) µg/ml
same,Concentration in CSF,[3]; [7],4.7 (4.0) µg/ml
same,Concentration in brain,[3]; [7],8.7 (3.9) µg/ml
same,Concentration in plasma,"[3]; maternal iv paracetamol 15 mg/kg + olanzapine 0.15 mg/kg (PARA+OLZ, n=10), listed as paracetamol",4.1 µg/mL
same,Concentration in CSF,"[3]; maternal iv paracetamol 15 mg/kg + valproate 30 mg/kg (PARA+VPA, n=10)",5.9 (2.1) µg/ml
same,Concentration in brain,[3]; [8],6.9 (2.1) µg/ml
same,Concentration in plasma,[3]; [8],6.0 (2.5) µg/ml
same,Concentration in CSF,[3]; [9],8.0 (3.2) µg/ml
same,Concentration in brain,[3]; [9],9.3 (5.0) µg/ml
same,Concentration in plasma,[3]; [9],7.5 (2.9) µg/ml
same,Concentration in plasma,"[3]; maternal iv paracetamol 15 mg/kg monotherapy (PARA, n=10), listed as paracetamol",7.5 µg/mL
same,change in plasma concentration following combination therapy,"[3]; adults, any of the drugs investigated, Kruskal-Wallis test",no significant changes
same,concentration at 30 min,"[3]; CSF, 15 mg/kg, Concentration in CSF, 30 min after ip paracetamol 15 mg/kg monotherapy (PARA, n=4)",7000 ng/mL
same,concentration at 30 min,"[3]; CSF, Concentration in CSF, 30 min after ip paracetamol 15 mg/kg + cimetidine 11 mg/kg (PARA+CIM, n=4)",6200 ng/mL
same,concentration at 30 min,"[3]; CSF, Concentration in CSF, 30 min after ip paracetamol 15 mg/kg + digoxin 0.03 mg/kg (PARA+DIG, n=4)",6300 ng/mL
same,concentration at 30 min,"[3]; CSF, Concentration in CSF, 30 min after ip paracetamol 15 mg/kg + fluvoxamine 1.5 mg/kg (PARA+FLX, n=4)",9400 ng/mL
same,concentration at 30 min,"[3]; CSF, Concentration in CSF, 30 min after ip paracetamol 15 mg/kg + lamotrigine 6 mg/kg (PARA+LTG, n=5)",7200 ng/mL
same,concentration at 30 min,"[3]; CSF, Concentration in CSF, 30 min after ip paracetamol 15 mg/kg + lithium 3.2 mg/kg (PARA+Li, n=4)",4700 ng/mL
same,concentration at 30 min,"[3]; CSF, Concentration in CSF, 30 min after ip paracetamol 15 mg/kg + olanzapine 0.15 mg/kg (PARA+OLZ, n=4)",5300 ng/mL
same,concentration at 30 min,"[3]; CSF, Concentration in CSF, 30 min after ip paracetamol 15 mg/kg + valproate 30 mg/kg (PARA+VPA, n=4)",6400 ng/mL
same,concentration at 30 min,"[3]; brain cortex, 15 mg/kg, Concentration in brain, 30 min after ip paracetamol 15 mg/kg monotherapy (PARA, n=4)",8900 ng/mL
